Where “and” joins values, the source holds several entries; their conditions need not be identical. Equal entries are not always repeated.
Experiments:
[1] = xn = mol fraction of the nth substance listed

Cc1cccc2ccccc12
100 kPa
Conditions	viscosity
303.15 K	2.58 mPa·s and 2.62 mPa·s and 2.582 mPa·s
323.15 K	1.75 mPa·s and 1.75 mPa·s and 1.748 mPa·s

CCCCCCCCCO
viscosity
Conditions	298 K	298.15 K	303.15 K	308.15 K	318.15 K	323.15 K
100 kPa	9.587 mPa·s and 7.614 mPa·s	9.566 mPa·s	7.967 mPa·s	6.59 mPa·s and 6.675 mPa·s	4.852 mPa·s and 4.814 mPa·s	4.179 mPa·s and 4.145 mPa·s
101.3 kPa	–	8.965 mPa·s and 9.692 mPa·s	7.375 mPa·s	6.114 mPa·s and 6.494 mPa·s	–	–
101.33 kPa	–	–	7.376 mPa·s	–	–	–

NCCNCCO.O=S(=O)([N-]S(=O)(=O)C(F)(F)F)C(F)(F)F.[Li+]
Conditions	viscosity [mPa·s]
323.15 K, 101 kPa	735.9

CC1CCCCC1=O (configuration not stated)
viscosity [mPa·s]
Conditions	303.15 K	308.15 K	313.15 K
100 kPa	2.225	2.168	2.111
101 kPa	2.225	2.168	–
101.33 kPa	1.406	–	–

CCC1CCCCC1
100 kPa
Conditions	viscosity
298.15 K	0.797 mPa·s and 0.792 mPa·s and 0.801 mPa·s
303.15 K	0.747 mPa·s and 0.741 mPa·s
308.15 K	0.705 mPa·s and 0.697 mPa·s and 0.701 mPa·s
313.15 K	0.662 mPa·s and 0.65 mPa·s and 0.664 mPa·s
318.15 K	0.627 mPa·s and 0.617 mPa·s
323.15 K	0.585 mPa·s and 0.57 mPa·s and 0.586 mPa·s

O=[N+]([O-])c1ccccc1O
viscosity [mPa·s]
Conditions	313.15 K	323.1 K	323.15 K
101 kPa	2.755	2.68	–
101.33 kPa	–	–	2.31

BrC(Br)(Br)Br
Conditions	viscosity [mPa·s]
298.15 K, 101 kPa	3.987

CC(=O)N(C)C
Conditions	viscosity
293.15 K, 101.33 kPa	1.02 mPa·s
298 K, 101.33 kPa	0.906 mPa·s
298.15 K, 101.3 kPa	0.917 mPa·s
298.15 K, 101.33 kPa	0.92 mPa·s
298.16 K, 101 kPa	0.927 mPa·s
303.15 K, 101.3 kPa	0.8769 mPa·s
308.15 K, 101.33 kPa	0.823 mPa·s
313.15 K, 100 kPa	0.765 mPa·s
323.15 K, 101 kPa	0.673 mPa·s and 0.69 mPa·s
323.15 K, 101.33 kPa	0.72 mPa·s

CCCCCCCC[n+]1ccn(C)c1.F[B-](F)(F)F
101 kPa
Conditions	viscosity
298.15 K	336.3 mPa·s and 336.3 mPa·s
303.15 K	257.5 mPa·s
308.15 K	193.8 mPa·s
313.15 K	148.8 mPa·s
323.15 K	92.1 mPa·s

CC(O)CN(C)C (configuration not stated)
101 kPa
Conditions	viscosity [mPa·s]
303.15 K	1.221
308.15 K	1.097
313.15 K	0.99
318.15 K	0.902
323.15 K	0.825

C=CCn1cc[n+](C)c1.O=S(=O)([N-]S(=O)(=O)C(F)(F)F)C(F)(F)F
Conditions	viscosity [mPa·s]
298.15 K, 100 kPa	34.31

CCCCCCCC[P+](CC)(CC)CC.O=[N+]([O-])c1cn[n-]c1
100 kPa
Conditions	viscosity [mPa·s]
293.15 K	398
298.15 K	282
303.15 K	207
308.15 K	155
313.15 K	119
318.15 K	94
323.15 K	75

O=S(=O)([O-])[O-].[Na+].[Na+] + O
[1]
Conditions	viscosity [mPa·s]
293.15 K, 100 kPa, x1 = 0.003594	1.085
293.15 K, 100 kPa, x1 = 0.004923	1.125
293.15 K, 100 kPa, x1 = 0.01069	1.29
293.15 K, 100 kPa, x1 = 0.01596	1.483
293.15 K, 100 kPa, x1 = 0.02116	1.67
293.15 K, 100 kPa, x1 = 0.02795	1.939
293.15 K, 101.3 kPa, x1 = 0.0009	1.025
293.15 K, 101.3 kPa, x1 = 0.0018	1.046
293.15 K, 101.3 kPa, x1 = 0.00893	1.236
293.15 K, 101.3 kPa, x1 = 0.0125	1.349
293.15 K, 101.3 kPa, x1 = 0.0177	1.548
293.15 K, 101.3 kPa, x1 = 0.02116	1.701
298.15 K, 100 kPa, x1 = 6e-05	0.8907
298.15 K, 100 kPa, x1 = 0.00013	0.8915
298.15 K, 100 kPa, x1 = 0.00025	0.8935
298.15 K, 100 kPa, x1 = 0.00038	0.8955
298.15 K, 100 kPa, x1 = 0.003594	0.967
298.15 K, 100 kPa, x1 = 0.01069	1.148
298.15 K, 100 kPa, x1 = 0.01596	1.315
298.15 K, 100 kPa, x1 = 0.02116	1.508
298.15 K, 100 kPa, x1 = 0.02795	1.766
298.15 K, 101 kPa, x1 = 0.00893	1.099
298.15 K, 101 kPa, x1 = 0.0168	1.349
298.15 K, 101 kPa, x1 = 0.0222	1.556
298.15 K, 101 kPa, x1 = 0.03141	2.023
298.15 K, 101.3 kPa, x1 = 0.0009	0.9113
298.15 K, 101.3 kPa, x1 = 0.0018	0.9298
298.15 K, 101.3 kPa, x1 = 0.00893	1.1
298.15 K, 101.3 kPa, x1 = 0.0125	1.201
298.15 K, 101.3 kPa, x1 = 0.0177	1.374
298.15 K, 101.3 kPa, x1 = 0.02116	1.505
298.15 K, 101.3 kPa, x1 = 0.02631	1.72
298.15 K, 101.33 kPa, x1 = 0.03319	1.746
303.15 K, 100 kPa, x1 = 0.003594	0.868
303.15 K, 100 kPa, x1 = 0.01069	1.025
303.15 K, 100 kPa, x1 = 0.01596	1.171
303.15 K, 100 kPa, x1 = 0.02116	1.343
303.15 K, 100 kPa, x1 = 0.02795	1.584
303.15 K, 101.3 kPa, x1 = 0.0009	0.8166
303.15 K, 101.3 kPa, x1 = 0.0018	0.8339
303.15 K, 101.3 kPa, x1 = 0.00893	0.9866
303.15 K, 101.3 kPa, x1 = 0.0125	1.076
303.15 K, 101.3 kPa, x1 = 0.0177	1.229
303.15 K, 101.3 kPa, x1 = 0.02116	1.345
303.15 K, 101.3 kPa, x1 = 0.02631	1.531
308.15 K, 100 kPa, x1 = 6e-05	0.7195
308.15 K, 100 kPa, x1 = 0.00013	0.7205
308.15 K, 100 kPa, x1 = 0.00025	0.722
308.15 K, 100 kPa, x1 = 0.00038	0.724
308.15 K, 100 kPa, x1 = 0.00128	0.7637
308.15 K, 100 kPa, x1 = 0.003594	0.787
308.15 K, 100 kPa, x1 = 0.01069	0.933
308.15 K, 100 kPa, x1 = 0.01596	1.053
308.15 K, 100 kPa, x1 = 0.02116	1.205
308.15 K, 100 kPa, x1 = 0.02795	1.419
308.15 K, 101.3 kPa, x1 = 0.0009	0.7374
308.15 K, 101.3 kPa, x1 = 0.0018	0.7529
308.15 K, 101.3 kPa, x1 = 0.00893	0.8914
308.15 K, 101.3 kPa, x1 = 0.0125	0.9716
308.15 K, 101.3 kPa, x1 = 0.0177	1.107
308.15 K, 101.3 kPa, x1 = 0.02116	1.21
308.15 K, 101.3 kPa, x1 = 0.02631	1.373
308.65 K, 100 kPa, x1 = 0.004923	0.803
318.15 K, 101.3 kPa, x1 = 0.0009	0.6114
318.15 K, 101.3 kPa, x1 = 0.0018	0.624
318.15 K, 101.3 kPa, x1 = 0.00893	0.7405
318.15 K, 101.3 kPa, x1 = 0.0125	0.8058
318.15 K, 101.3 kPa, x1 = 0.0177	0.916
318.15 K, 101.3 kPa, x1 = 0.02116	0.9978
318.15 K, 101.3 kPa, x1 = 0.02631	1.127
323.15 K, 101 kPa, x1 = 0.00893	0.676
323.15 K, 101 kPa, x1 = 0.0168	0.819
323.15 K, 101.33 kPa, x1 = 0.05655	1.545

CC(=O)OCCC1CCCCC1
101 kPa
Conditions	viscosity [mPa·s]
300 K	2.54
310 K	2.07
320 K	1.72

BrC(Br)(Br)Br + c1ccccc1
[1], 298.15 K, 101 kPa
Conditions	viscosity [mPa·s]
x1 = 0.1	0.8303
x1 = 0.2	1.122
x1 = 0.3	1.464
x1 = 0.4	1.839
x1 = 0.5	2.235
x1 = 0.6	2.636
x1 = 0.7	3.026
x1 = 0.8	3.391
x1 = 0.9	3.716
